Source: patent publication US7595401B2, “Therapeutic compounds and their use in cancer” (Myriad Pharmaceuticals, Inc., priority 2006, dated 2009)

test system: purified human Hsp90; assay: Binding Assay: fluorescence polarization with BODIPY-labeled geldanamycin; conditions: 5 μM compound, BODIPY-GM 10 nM, Hsp90 30 nM
Outline: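 Fluorescence polarization competition with BODIPY-geldanamycin (10 nM final) and human Hsp90 (30 nM final) in HEPES-KOH pH 7.3 buffer with molybdate, NP-40, DTT; 2% DMSO, overnight at room temperature. Read 485/530 nm; percent inhibition from mP normalized to DMSO controls, fluorescent-compound points excluded.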

Row | Structure (SMILES) | % Inhibition at 5 μM Compound Concentration
1 | COc1ccc(OC)c(Sc2nc3c(N)ncn(CCc4ccccc4F)c-3n2)c1 [Example 30, 8-(2,5-dimethoxy-phenylsulfanyl)-3-[2-(2-fluoro-phenyl)-ethyl]-3H-purin-6-ylamine] | 16%
2 | COc1cc(CCn2cnc(N)c3nc(Sc4cc5c(cc4Br)OCO5)nc2-3)cc(OC)c1OC [Example 92, 8-(6-bromo-benzo[1,3]dioxol-5-ylsulfanyl)-3-[2-(3,4,5-trimethoxy-phenyl)-ethyl]-3H-purin-6-ylamine] | 0%
3 | COc1ccc(C#N)cc1Sc1nc2c(N)ncn(CCc3ccccc3Cl)c-2n1 [Example 307, 3-({6-Amino-3-[2-(2-chlorophenyl)ethyl]-3H-purin-8-yl}thio)-4-methoxybenzonitrile] | 40.0%
4 | CC(=O)N1CCC(CCn2cnc(N)c3nc(Sc4ccc5c(c4)OC(F)(F)O5)nc2-3)CC1 [Example 572, 3-[2-(1-Acetylpiperidin-4-yl)ethyl]-8-[(2,2-difluoro-1,3-benzodioxol-5-yl)thio]-3 H-purin-6-amine] | 0.00%
5 | Nc1ncn(CCC2=CCN(Cc3ccccc3)CC2)c2nc(Sc3cc4c(cc3Br)OCO4)nc1-2 [Example 425, 3-[2-(1-Benzyl-1,2,3,6-tetrahydropyridin-4-yl)ethyl]-8-[(6-bromo-1,3-benzodioxol-5-yl)thio]-3H-purin-6-amine] | 6%
6 | CN(C)c1ccc(CCn2cnc(N)c3nc(Sc4cc5c(cc4Br)OCO5)nc2-3)cc1 [Example 188, 8-(6-bromo-benzo[1,3]dioxol-5-ylsulfanyl)-3-[2-(4-dimethylamino-phenyl)-ethyl]-3H-purin-6-ylamine] | 21%
7 | COc1ccc(OC)c(Sc2nc3c(N)ncnc3n2CC(c2ccccc2)C2CCCCC2)c1 (stereo not drawn) [Example 179, 9-(2-Cyclohexyl-2-phenyl-ethyl)-8-(2,5-dimethoxy-phenylsulfanyl)-9H-purin-6-ylamine] | 8%

Further lines, results first:

Row | % Inhibition at 5 μM Compound Concentration | Structure (SMILES)
8 | 21% | CC(C)(C)C(=O)N1CCC(CCn2cnc(N)c3nc(Sc4cc5c(cc4Br)OCO5)nc2-3)CC1 [Example 452, 8-[(6-Bromo-1,3-benzodioxol-5-yl)thio]-3-{2-[1-(2,2-dimethylpropanoyl)piperidin-4-yl]ethyl}-3H-purin-6-amine]
9 | 0% | CCOC(=O)[C@@H]1C[C@H](CCn2cnc(N)c3nc(Sc4cc5c(cc4Br)OCO5)nc2-3)CCN1C(=O)OC(C)(C)C (relative stereo) [Example 423, 1-tert-Butyl 2-ethyl cis-4-(2-{6-amino-8-[(6-bromo-1,3-benzodioxol-5-yl)thio]-3H-purin-3-yl}ethyl)piperidine-1,2-dicarboxylate]
10 | 45% | CC(C)CN1CCCCC1CCn1cnc(N)c2nc(Sc3cc4c(cc3Br)OCO4)nc1-2 (stereo not drawn) [Example 448, 8-[(6-Bromo-1,3-benzodioxol-5-yl)thio]-3-[2-(1-isobutylpiperidin-2-yl)ethyl]-3H-purin-6-amine]
11 | 0% | CC(C)(C)OC(=O)N1CCCC[C@@H]1CCn1cnc(N)c2nc(Sc3cc4c(cc3Br)OCO4)nc1-2 [Example 395, tert-Butyl (2R)-2-(2-{6-amino-8-[(6-bromo-1,3-benzodioxol-5-yl)thio]-3H-purin-3-yl}ethyl)piperidine-1-carboxylate]
12 | 25.0% | COc1cccc(CCn2cnc(N)c3nc(Sc4cc5c(cc4Br)OCO5)nc2-3)c1 [Example 309, 8-[(6-Bromo-1,3-benzodioxol-5-yl)thio]-3-[2-(3-methoxyphenyl)ethyl]-3H-purin-6-amine]

same assay, conditions: BODIPY-GM 10 nM, Hsp90 30 nM

Row | Structure (SMILES) | IC50
13 | COc1ccc(OC)c(Sc2nc3c(N)ncnc3n2CCc2cccc(F)c2F)c1 [Example 145, 9-[2-(2,3-Difluoro-phenyl)-ethyl]-8-(2,5-dimethoxy-phenylsulfanyl)-9H-purin-6-ylamine] | > 3000 nM
14 | COc1ccc(OC)c(Sc2nc3c(N)ncn(CCc4ccccc4F)c-3n2)c1 [Example 30, 8-(2,5-dimethoxy-phenylsulfanyl)-3-[2-(2-fluoro-phenyl)-ethyl]-3H-purin-6-ylamine] | > 10000 nM
15 | COc1ccc(OC)c(Sc2nc3c(N)ncnc3n2CCC2(F)C(F)(F)C(F)(F)C(F)(F)C(F)(F)C2(F)F)c1 [Example 384, 8-[(2,5-Dimethoxyphenyl)thio]-9-[2-(undecafluorocyclohexyl)ethyl]-9H-purin-6-amine] | > 1000 nM
16 | CCOc1ccc(OCC)c(Sc2nc3c(N)ncnc3n2CCc2ccccc2Cl)c1 [Example 191, 9-[2-(2-Chloro-phenyl)-ethyl]-8-(2,5-diethoxy-phenylsulfanyl)-9H-purin-6-ylamine] | > 8000 nM
17 | COc1ccc(OC)c(Sc2nc3c(N)ncnc3n2CCc2c(F)c(F)c(F)c(F)c2F)c1 [Example 218, 8-(2,5-Dimethoxy-phenylsulfanyl)-9-(2-pentafluorophenyl-ethyl)-9H-purin-6-ylamine] | > 3000 nM
18 | COc1ccc(OC)c(Sc2nc3c(N)ncnc3n2Cc2ccc(F)cc2)c1 [Example 266, 8-[(2,5-Dimethoxyphenyl)thio]-9-(4-fluorobenzyl)-9H-purin-6-amine] | 12000 nM
19 | COc1ccc(OC)c(Sc2nc3c(N)ncnc3n2CCc2c(Cl)cccc2Cl)c1 [Example 251, 9-[2-(2,6-Dichlorophenyl)ethyl]-8-[(2,5-dimethoxyphenyl)thio]-9H-purin-6-amine] | 75 nM
20 | COc1cccc(CCn2c(Sc3cc(OC)ccc3OC)nc3c(N)ncnc32)c1 [Example 35, 8-(2,5-Dimethoxy-phenylsulfanyl)-9-[2-(3-methoxy-phenyl)-ethyl]-9H-purin-6-ylamine] | 800 nM
21 | CCC(CC)N1CCN(CCn2c(Sc3cc(OC)ccc3OC)nc3c(N)ncnc32)CC1 [Example 627, 8-[(2,5-Dimethoxyphenyl)thio]-9-{2-[4-(1-ethylpropyl)piperazin-1-yl]ethyl}-9 H-purin-6-amine] | > 8000 nM
22 | COc1ccc(OC)c(Sc2nc3c(N)ncnc3n2CCc2ccc(F)cc2Cl)c1 [Example 139, 9-[2-(2-chloro-4-fluoro-phenyl)-ethyl]-8-(2,5-dimethoxy-phenylsulfanyl)-9H-purin-6-ylamine] | 90 nM

Next, values leading:

Row | IC50 | Structure (SMILES)
23 | 68 nM | CC(C)C[C@H](N)C(=O)N1CCC(CCn2c(Sc3cc4c(cc3Br)OCO4)nc3c(N)ncnc32)CC1 [Example 744, 9-(2-{1-[(2S)-2-Amino-4-methylpentanoyl]piperidin-4-yl}ethyl)-8-[(6-bromo-1,3-benzodioxol-5-yl)thio]-9H-purin-6-amine]
24 | > 25000 nM | CN1CCCC1CCn1c(Sc2cc3c(cc2Br)OCO3)nc2c(N)ncnc21 (stereo not drawn) [Example 355, 8-[(6-Bromo-1,3-benzodioxol-5-yl)thio]-9-[2-(1-methylpyrrolidin-2-yl)ethyl]-9H-purin-6-amine]
25 | > 5000 nM | CC(=O)Nc1ccc(Sc2nc3c(N)ncnc3n2CCC2CCN(C=O)CC2)c(Cl)c1 [Example 548, N-[4-({6-Amino-9-[2-(1-formylpiperidin-4-yl)ethyl]-9 H-purin-8-yl}thio)-3-chlorophenyl]acetamide]
26 | 38 nM | Nc1ncnc2c1nc(Sc1cc3c(cc1Br)OCO3)n2CCc1ccccc1[N+](=O)[O-] [Example 207, 8-(6-Bromo-benzo[1,3]dioxol-5-ylsulfanyl)-9-[2-(2-nitro-phenyl)-ethyl]-9H-purin-6-ylamine]
27 | 390 nM | CC(C)NC(=O)N1CCCC(CCn2c(Sc3cc4c(cc3Br)OCO4)nc3c(N)ncnc32)C1 (stereo not drawn) [Example 436, 3-(2-{6-Amino-8-[(6-bromo-1,3-benzodioxol-5-yl)thio]-9H-purin-9-yl}ethyl)-N-isopropylpiperidine-1-carboxamide]
28 | 190 nM | Cc1cc(C)c(CCn2c(Sc3cc4c(cc3Br)OCO4)nc3c(N)ncnc32)c(C)c1 [Example 93, 8-(6-Bromo-benzo[1,3]dioxol-5-ylsulfanyl)-9-[2-(2,4,6-trimethyl-phenyl)-ethyl]-9H-purin-6-ylamine]
29 | 2500 nM | COc1ccc(OC)c(Sc2nc3c(N)ncnc3n2CCC2CCCN(C(=O)OC(C)(C)C)C2)c1 (stereo not drawn) [Example 347, tert-Butyl 3-(2-{6-amino-8-[(2,5-dimethoxyphenyl)thio]-9H-purin-9-yl}ethyl)piperidine-1-carboxylate]
30 | > 25000 nM | Nc1ncnc2c1nc(Sc1cc3c(cc1Br)OCO3)n2CC(c1ccccc1)C1CCCCC1 (stereo not drawn) [Example 226, 8-[(6-Bromo-1,3-benzodioxol-5-yl)thio]-9-(2-cyclohexyl-2-phenylethyl)-9H-purin-6-amine]
31 | 80 nM | CC(C)(C)OC(=O)NCC(=O)N1CCC(CCn2c(Sc3cc4c(cc3Br)OCO4)nc3c(N)ncnc32)CC1 [Example 705, tert-Butyl{2-[4-(2-{6-amino-8-[(6-bromo-1,3-benzodioxol-5-yl)thio]-9H-purin-9-yl}ethyl)piperidin-1-yl]-2-oxoethyl}carbamate]
32 | 450 nM | COc1ccc(OC)c(Sc2nc3c(N)ncnc3n2CCC2CCN(C=O)CC2)c1 [Example 358, 4-(2-{6-Amino-8-[(2,5-dimethoxyphenyl)thio]-9H-purin-9-yl}ethyl)piperidine-1-carbaldehyde]
33 | 467 nM | Nc1ncnc2c1nc(Sc1cc3c(cc1Br)OCO3)n2CC[C@@H]1CCCCN1 [Example 477, 8-[(6-Bromo-1,3-benzodioxol-5-yl)thio]-9-{2-[(2S)-piperidin-2-yl]ethyl}-9 H-purin-6-amine]
34 | 140 nM | Nc1ncnc2c1nc(Sc1cc3c(cc1Br)OCO3)n2CCC1CCN(C(=O)NCCCC(=O)O)CC1 [Example 502, 4-({[4-(2-{6-Amino-8-[(6-bromo-1,3-benzodioxol-5-yl)thio]-9 H-purin-9-yl}ethyl)piperidin-1-yl]carbonyl}amino)butanoic acid]
35 | 380 nM | CC(C)(C)OC(=O)N1CC(CCn2c(Sc3cc4c(cc3Br)OCO4)nc3c(N)ncnc32)C1 [Example 458, tert-Butyl 3-(2-{6-amino-8-[(6-bromo-1,3-benzodioxol-5-yl)thio]-9H-purin-9-yl}ethyl)azetidine-1-carboxylate]
36 | 240 nM | C[C@@H](N)C(=O)N1CCC(CCn2c(Sc3cc4c(cc3Br)OCO4)nc3c(N)ncnc32)CC1 [Example 746, 9-(2-{1-[(2R)-2-Aminopropanoyl]piperidin-4-yl}ethyl)-8-[(6-bromo-1,3-benzodioxol-5-yl)thio]-9H-purin-6-amine]
